Experimental findings from ChEMBL document CHEMBL1201862, “PubChem BioAssay data set” (2004) are described below.

Test systems include BT-549; CCRF-CEM; HL-60; HOP-92; IGROV-1; KM12; LOX IMVI; MCF7; MDA-MB-231; OVCAR-3; OVCAR-5; PC-3; SF-268; SK-MEL-5; SK-OV-3; SNB-19; SNB-75; SR; T47D; UACC-62.
Common to all, as to test: inhibition of tumour cell growth, NCI panel, 48 h

Each structure is given as a SMILES string.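 Test compounds were applied to cells in 96-well plates for 48 hours at 5 doses. Abbreviation: GI50, concentration required for 50% inhibition of growth.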 The source made the active and inactive calls. No stated cut-off is given here; in the data, active = GI50 up to about 1.1 µM and inactive = higher.

Take `COc1ccc(/N=N/c2ccc3oc(=O)c(C(=O)Nc4ccc(OC)cc4)cc3c2)cc1`: the GI50 in the assay with BT-549 was 4.93 µM (inactive); in the assay on CCRF-CEM, 4.89 µM (inactive); in the assay with HL-60, 5.69 µM (inactive); in the assay with HOP-92 it was 18.4 µM (inactive); in the assay on IGROV-1, 16.1 µM (inactive); in the assay with KM12 it was 13.8 µM (inactive). Moreover, the GI50 with LOX IMVI is 3.71 µM (inactive); with MCF7, 16.1 µM (inactive); in the assay on MDA-MB-231, 23.5 µM (inactive); in the assay on OVCAR-3, 19.2 µM (inactive); with OVCAR-5, 17.8 µM (inactive); in the assay with PC-3 it was 11 µM (inactive). Further, the GI50 in the assay on SF-268 is 9.02 µM (inactive); in the assay on SK-MEL-5 it was 14.9 µM (inactive); in the assay with SK-OV-3, 19.5 µM (inactive); with SNB-19 it was 22.5 µM (inactive); in the assay on SNB-75, 16.2 µM (inactive); in the assay with SR, 12 µM (inactive). In addition, the GI50 in the assay with T47D is 4.23 µM (inactive).

`COc1cc2cc(C(=O)N3CC(CCl)c4ccc([N+](C)(C)Cc5ccccc5[N+](=O)[O-])cc43)[nH]c2c(OC)c1OC` (stereo unspecified): the GI50 in the assay on BT-549 was 1.95 µM (inactive); in the assay on CCRF-CEM, 0.966 µM (active); in the assay on HL-60, 2.77 µM (inactive); in the assay on HOP-92, 2.21 µM (inactive); in the assay on IGROV-1, 1.82 µM (inactive); in the assay on KM12 it was 2.24 µM (inactive). Further, the GI50 is 2.31 µM (inactive) with LOX IMVI; 0.621 µM (active) with MCF7; 3.94 µM (inactive) in the assay on MDA-MB-231; 2.94 µM (inactive) in the assay with OVCAR-3; 2.66 µM (inactive) in the assay on OVCAR-5; 1.68 µM (inactive) with PC-3. Besides, the GI50 in the assay with SF-268 was 1.71 µM (inactive); with SK-MEL-5 it was 0.875 µM (active); with SK-OV-3, 4.51 µM (inactive); with SNB-19, 2.36 µM (inactive); with SNB-75, 4.09 µM (inactive); in the assay with SR, 0.213 µM (active). In addition, the results for the GI50 with T47D and with UACC-62 were 2.31 µM (inactive) and 1.01 µM (active), respectively.

Regarding `O=c1[nH]c(=O)n(C2OC(CO)C(O)C(O)C2O)cc1F` (stereo unspecified), the GI50 was > 100 µM (inactive) in the assay on BT-549; > 100 µM (inactive) in the assay on CCRF-CEM; > 64.4 µM (inactive) with HL-60; > 12.7 µM (inactive) in the assay with HOP-92; > 100 µM (inactive) with IGROV-1; > 100 µM (inactive) in the assay with KM12. The GI50 in the assay with LOX IMVI, in the assay on MCF7, in the assay with MDA-MB-231, with OVCAR-3, with OVCAR-5 and in the assay with PC-3 was > 100 µM (inactive) each time. Moreover, the GI50 is > 100 µM (inactive) in the assay on SF-268; > 100 µM (inactive) with SK-MEL-5; > 100 µM (inactive) in the assay on SK-OV-3; > 100 µM (inactive) in the assay on SNB-19; > 88.5 µM (inactive) with SNB-75; > 100 µM (inactive) with SR. The GI50 in the assay on T47D and in the assay with UACC-62 was > 100 µM (inactive) throughout.

As for `COC(=O)C1=C(C(=O)OC)C(OO)(c2ccccc2)OC1=O` (stereo unspecified), the GI50 is > 100 µM (inactive) in the assay with BT-549; 55.6 µM (inactive) in the assay with CCRF-CEM; > 100 µM (inactive) in the assay on HL-60; > 100 µM (inactive) in the assay with HOP-92; 35 µM (inactive) in the assay on IGROV-1; > 100 µM (inactive) in the assay with KM12. Besides, the GI50 in the assay on LOX IMVI was 31.3 µM (inactive); in the assay on MCF7, 52.1 µM (inactive); with MDA-MB-231, 58.2 µM (inactive); in the assay on OVCAR-3, > 100 µM (inactive); in the assay on OVCAR-5 it was 40.6 µM (inactive); in the assay on PC-3, 38.6 µM (inactive). The GI50 with SK-MEL-5 was 50.2 µM (inactive); in the assay on SK-OV-3, > 100 µM (inactive); in the assay on SNB-19 it was > 100 µM (inactive); in the assay with SNB-75, 50.7 µM (inactive); with SR, 38.5 µM (inactive); in the assay on T47D, > 100 µM (inactive). Further, in the assay with UACC-62, the GI50 is 34.2 µM (inactive).

As to `COc1ccc(CCCCNCc2cccc(CNCCCCc3ccc(OC)cc3)c2)cc1`, the GI50 is 1.81 µM (inactive) with BT-549; 1.67 µM (inactive) with CCRF-CEM; 1.77 µM (inactive) with HL-60; 1.44 µM (inactive) with HOP-92; 1.74 µM (inactive) in the assay with IGROV-1; 1.77 µM (inactive) in the assay on KM12. Also, the GI50 is 1.6 µM (inactive) with LOX IMVI; 1.54 µM (inactive) in the assay with MCF7; 1.87 µM (inactive) in the assay with MDA-MB-231; 1.88 µM (inactive) with OVCAR-3; 2.09 µM (inactive) in the assay on OVCAR-5; 1.79 µM (inactive) with PC-3. Moreover, the GI50 with SF-268 was 1.76 µM (inactive); in the assay on SK-MEL-5 it was 1.66 µM (inactive); with SK-OV-3, 2.08 µM (inactive); in the assay on SNB-19 it was 1.71 µM (inactive); with SNB-75, 1.76 µM (inactive); in the assay on SR, 1.79 µM (inactive). Moreover, the results for the GI50 in the assay on T47D and with UACC-62 were 2.06 µM (inactive) and 1.85 µM (inactive), respectively.

For the molecule `COc1c2c(cc3c1C1(O)Cc4ccc5c(c4C[N+]1(C)CC3)OCO5)OCO2` (stereo unspecified), the GI50 in the assay with BT-549 was > 100 µM (inactive); in the assay with CCRF-CEM, 82.8 µM (inactive); in the assay with HL-60 it was 42.7 µM (inactive); in the assay on HOP-92 it was > 100 µM (inactive); in the assay with IGROV-1, > 100 µM (inactive); in the assay with KM12, > 100 µM (inactive). The GI50 is 62.1 µM (inactive) in the assay with LOX IMVI; > 100 µM (inactive) with MCF7; > 100 µM (inactive) in the assay with MDA-MB-231; > 100 µM (inactive) in the assay on OVCAR-3; > 100 µM (inactive) in the assay on OVCAR-5; 73.5 µM (inactive) in the assay with PC-3. The GI50 in the assay with SF-268 is > 100 µM (inactive); in the assay on SK-MEL-5 it was > 100 µM (inactive); in the assay on SK-OV-3 it was > 100 µM (inactive); in the assay on SNB-19, > 100 µM (inactive); in the assay with SNB-75, > 100 µM (inactive); in the assay on SR, 77.8 µM (inactive). Further, the GI50 with T47D and in the assay with UACC-62 was > 100 µM (inactive) throughout.

As for `CC1OC(OC2C(OC(=O)[C@]34CCC(C)(C)C[C@H]3C3=CC[C@@H]5[C@@]6(C)CC[C@H](OC7OC(C(=O)O)C(O)C(O)C7O)C(C)(C)[C@@H]6CC[C@@]5(C)[C@]3(C)C[C@H]4O)OCC(O)C2O)C(O)C(O)C1OC1OCC(OC2OCC(O)C(O)C2O)C(O)C1O` (stereo partly specified), the GI50 with BT-549 is 3.28 µM (inactive); in the assay on CCRF-CEM, > 10 µM (inactive); in the assay with HL-60, 3.96 µM (inactive); with HOP-92 it was 6.01 µM (inactive); in the assay on IGROV-1, 12.8 µM (inactive); in the assay with KM12 it was 3.61 µM (inactive). The GI50 in the assay on LOX IMVI is 11.9 µM (inactive); in the assay with MCF7 it was 5.07 µM (inactive); in the assay with MDA-MB-231 it was 3.45 µM (inactive); in the assay on OVCAR-3 it was 15.9 µM (inactive); in the assay on OVCAR-5, 6.75 µM (inactive); in the assay on PC-3, 6.46 µM (inactive). Further, the GI50 in the assay with SF-268 was 12.6 µM (inactive); with SK-MEL-5 it was 13.9 µM (inactive); in the assay on SK-OV-3, 13.8 µM (inactive); in the assay on SNB-19, 5.51 µM (inactive); with SNB-75, 13.2 µM (inactive); in the assay on SR, 7.23 µM (inactive). The figures for the GI50 with T47D and in the assay with UACC-62 were 7.16 µM (inactive) and 11 µM (inactive), respectively.

For `CC1OC(O[C@@H]2OC=C(C=O)[C@@]3(O)CC[C@H](C)[C@@H]23)C(O)C(O)C1O` (stereo partly specified), the GI50 with BT-549, in the assay on CCRF-CEM, in the assay with HL-60, with HOP-92, in the assay with IGROV-1 and with KM12 was > 100 µM (inactive) each time. In addition, the GI50 with LOX IMVI, in the assay with MCF7, with MDA-MB-231, in the assay with OVCAR-3, in the assay with OVCAR-5 and in the assay on PC-3 was > 100 µM (inactive) throughout. The GI50 in the assay with SF-268, in the assay on SK-MEL-5, in the assay with SK-OV-3, with SNB-19, with SNB-75 and with SR was > 100 µM (inactive) in each case. Further, the GI50 with T47D and with UACC-62 was > 100 µM (inactive) each time.

Consider `CCOC(=O)NC(=S)NN(C)C1=NCC(C)(C)S1`, for which the GI50 with BT-549, in the assay with CCRF-CEM, with HL-60, in the assay on HOP-92, with IGROV-1 and in the assay on KM12 was > 100 µM (inactive) in each case. The GI50 in the assay with LOX IMVI, with MCF7, with MDA-MB-231, in the assay on OVCAR-3, with OVCAR-5 and in the assay with PC-3 was > 100 µM (inactive) throughout. Also, the GI50 in the assay with SK-MEL-5, in the assay on SK-OV-3, in the assay on SNB-19, in the assay on SNB-75, in the assay on SR and with T47D was > 100 µM (inactive) throughout. In the assay on UACC-62, the GI50 was > 100 µM (inactive).

With `COC(=O)C(/C(=N/N)C(=O)Nc1ccc(C)c(C)c1)c1nc2ccc(Cl)cc2nc1O` (stereo unspecified), the GI50 in the assay with BT-549 is > 100 µM (inactive); in the assay with CCRF-CEM, > 100 µM (inactive); with HL-60, > 100 µM (inactive); in the assay with HOP-92, > 100 µM (inactive); in the assay with IGROV-1, 49.3 µM (inactive); in the assay on KM12, > 100 µM (inactive). For the same molecule, the GI50 in the assay with LOX IMVI, in the assay on MCF7, with MDA-MB-231, with OVCAR-3, with OVCAR-5 and with PC-3 was > 100 µM (inactive) in each case. The GI50 with SF-268, in the assay on SK-MEL-5, with SK-OV-3, in the assay with SNB-75, in the assay on SR and in the assay on T47D was > 100 µM (inactive) throughout. Also, the GI50 with UACC-62 was > 100 µM (inactive).
